{
  "source": "paper PMC7377239",
  "about": "“Cardiovascular Effects of Polychlorinated Biphenyls and Their Major Metabolites” (Environmental Health Perspectives, 2020)",
  "key": {"[1]": {"test_system": "iCell endothelial cells (human iPSC-derived ECs)", "test": "Tube formation (tubulogenesis) assay in iCell endothelial cells, 18 h", "assay_type": "cell-based", "conditions": "Homo sapiens, Endothelial cell, endothelial cells (endo), 18 hr", "protocol": "(§1) The culture conditions of iCell®-endothelial cells were as reported elsewhere ([Iwata et al. 2017]). Briefly, T75 flasks were coated with a fibronectin solution ( 3 μg/cm^2 ) followed by incubation for 1–2 h. Cells were thawed for 3 min in a 37°C water bath. Thawed cells were added to maintenance medium made of VascuLife VEGF Medium Complete Kit, excluding the supplied FBS, and iCell® Endothelial Cells Medium Supplement. The final formulation of the maintenance medium is detailed in ([Iwata et al. 2017]). The aliquoted fibronectin solution was aspirated from the T75 flasks, and cells were seeded at 1.0×10^4 cells/cm^2 . Cells were maintained at 37°C and 5% CO2 with media changes occurring every 2 d and passaged every 3–4 d using TrypLE™ Express. All experiments were conducted on cells between passages 1 and 5.\nTube formation assays were performed on Geltrex™ LDEV-free reduced growth factor basement membrane using both iCell®-endothelial cells and HUVECs in 384-well format exactly as detailed in Iwata et al. ([2017]). Negative controls included media-only and vehicle control (i.e., 0.5% vol/vol DMSO in cell culture media) wells. Positive assay controls were consistent with previously published reports ([Iwata et al. 2017]) and included TAB ( 50μM ) as a cytotoxic control, and nocodazole ( 0.01–1μM ), suramin ( 0.5–50μM ), histamine ( 0.1–100μM ), and chloroquine ( 1–500μM ) as chemicals associated with specific effects on ECs. Each test chemical was screened in triplicate for each concentration. Briefly, for iCell®-endothelial cells, starvation media consisted of VascuLife® basal medium with 4 mM L-glutamine LifeFactor and 0.1% iCell®-endothelial cells medium supplement. To counter dilution effects, a 2× concentration of the HUVEC maintenance medium supplemented with additional VEGF was created (EGM™-2 BulletKits™ at 2× concentration; also the VEGF component was replaced with 12.5 ng/mL VEGF). Geltrex™ LDEV-free reduced growth factor basement membrane was thawed overnight and dispensed into 384-well plates ( 10μL/well ) with tapping and rotating to evenly coat. The plates were incubated for 1 h in a cell culture incubator at 37°C and 5% CO2 . A 2× PCB plate (containing all of the PCBs and metabolites in dose–response) was prepared in basal media and added, 25μL per well, to the Geltrex™ coated plates. On separate plates, cells were seeded 7,500 (iPSC- ECs) or 3,500 (HUVEC) cells/well. Cells were exposed to chemicals overnight at 37°C and 5% CO2 and stained with 3× concentration of calcein AM ( 25μL /well, 6μmol/L ) for 15 min before imaging. Images were captured at 4× magnification with the FITC filter (calcein AM). Images were analyzed with the angiogenesis module software within MetaXpress™ (Molecular Devices).\n(§2) Phenotypic responses were quantitatively assessed using concentration–response modeling as detailed elsewhere ([Sirenko et al. 2017]). Briefly, phenotypic readouts were normalized to vehicle controls and fit to a four-parameter logistic model in R studio software (version 3.1.1; R Development Core Team). Following EPA guidance on dose–response modeling, a cutoff of one standard deviation across means of vehicle control (i.e., 0.5% vol/vol DMSO in cell culture media) wells was applied to determine the point-of-departure (POD) values ([U.S. EPA 2012]). In the absence of a concentration–response, the highest tested concentration (i.e., 100μM ) was assigned as “no observable adverse effect level.” The concentration–response assessment R script, as well as templates for vehicle and concentration–response data, are available as a supplement to Sirenko et al. ([2017]). The ability of physicochemical properties to predict differences in PODs were evaluated by multiregression and mixed-effects modeling using R."}, "[2]": {"test_system": "iCell endothelial cells (human iPSC-derived ECs)", "test": "High-content imaging cytotoxicity in iCell endothelial cells, 24 h", "assay_type": "cell-based", "conditions": "Homo sapiens, Endothelial cell, endothelial cells (endo), 24 hr", "protocol": "as §1\nCytotoxicity was assessed in parallel experiments. For iCell®-endothelial cells, 384-well plates were coated with a 30μg/mL fibronectin solution ( 10μL/well ) and incubated for 2 h at RT. iCell®-endothelial cells were dissociated with TrypLE™ Express and prepared into a solution to achieve 750 cells per well and 50μL of total volume. The fibronectin solution was removed from the 384-well plate, and cells were plated. For HUVECs, similar dissociation and the same cell density were used for plating with the exclusion of the fibronectin solution. Cells were incubated at 37°C and 5% CO2 until a monolayer was formed, typically 3–5 d. 2×PCB plates were created with the requisite maintenance medium. Before treatment, the medium in the wells was exchanged to 25μL/well of fresh maintenance medium. 2×PCB chemical solutions ( […] ) were added. After 24 h incubation at 37°C and 5% CO2 , cells were stained with Hoechst 33342, MitoTracker™ Orange, and calcein AM for 20 min before replacing the staining media with FluoroBright DMEM. Cell culture plates were imaged using the ImageXpress® Micro Confocal high-content imaging system (Molecular Devices). Images were acquired at 10× magnification with DAPI, TRITC, or FITC filter (Hoechst 33342, MitoTracker™, or calcein AM, respectively). The multiwavelength cell scoring applications module in MetaXpress™ (Molecular Devices) was used to analyze the images.\nas §2"}},
  "data": [
    {"smiles": "Clc1ccc(Cl)c(-c2cc(Cl)ccc2Cl)c1", "note": "[PCB 52, 2,2′,5,5′-tetrachlorobiphenyl]", "values": [
      {"measurement": "minimal effective concentration", "setting": "[1]; tube formation mtl, read-out: POD endo.mtl.18hr", "value": 79.8, "unit": "µM"},
      {"measurement": "minimal effective concentration", "setting": "[1]; tube formation tlps, read-out: POD endo.tlps.18hr", "value": 100, "unit": "µM"},
      {"measurement": "minimal effective concentration", "setting": "[1]; tube formation tta, read-out: POD endo.tta.18hr", "value": 100, "unit": "µM"},
      {"measurement": "minimal effective concentration", "setting": "[1]; tube formation ttl, read-out: POD endo.ttl.18hr", "value": 100, "unit": "µM"},
      {"measurement": "minimal effective concentration", "setting": "[2]; cyto, read-out: POD endo.cyto.24hr", "value": 100, "unit": "µM"},
      {"measurement": "minimal effective concentration", "setting": "[2]; mito, read-out: POD endo.mito.24hr", "value": 100, "unit": "µM"},
      {"measurement": "minimal effective concentration", "setting": "[2]; mitoint, read-out: POD endo.mitoint.24hr", "value": 100, "unit": "µM"},
      {"measurement": "minimal effective concentration", "setting": "[2]; nma, read-out: POD endo.nma.24hr", "value": 100, "unit": "µM"},
      {"measurement": "minimal effective concentration", "setting": "[2]; tc, read-out: POD endo.tc.24hr", "value": 100, "unit": "µM"}
    ]}
  ]
}
